Patent EP4603105A1, “PHARMACEUTICAL COMPOSITION CONTAINING CYCLIC COMPOUND HAVING SELECTIVE KRAS INHIBITORY EFFECT AGAINST HRAS AND NRAS” (CHUGAI SEIYAKU KABUSHIKI KAISHA, priority 2022, dated 2024)
*1 amine or outer side, *2 acyl side, *3 side chain or, on linkers, in order; H or OH if unused. Where a SMILES comes first, the peptide text is derived from it. Bridges are numbered along the chain shown (N, C = ends). [ ]: non-standard residue; d: D form. The star is where a group is joined. hPhe(3-Cl-4-CF3) = N[C@@H](CCc1ccc(C(F)(F)F)c(Cl)c1)C(=O)O; X51 = CCCN([C@@H](Cc1ccc(OC(F)(F)F)cc1)C(=O)[*:2])[*:1]; NPrPhe(4-CF3) = CCCN[C@@H](Cc1ccc(C(F)(F)F)cc1)C(=O)O; X50 = C=CCN([C@@H](Cc1ccc(C)cc1)C(=O)[*:2])[*:1]; NMeGly(cPent) = CN[C@H](C(=O)O)C1CCCC1; Pro(4S-Me) = C[C@@H]1CN[C@H](C(=O)O)C1; Aze(3S-Me) = C[C@H]1CN[C@@H]1C(=O)O; cisHyp = O=C(O)[C@@H]1C[C@H](O)CN1; NMeD = CN[C@@H](CC(=O)O)C(=O)O; NMeL = CN[C@@H](CC(C)C)C(=O)O; Morpholide = C1CN(*)CCO1; NMeA = CN[C@@H](C)C(=O)O; Ac5c = NC1(C(=O)O)CCCC1; Aze = O=C(O)[C@@H]1CCN1; Ethyl(2,2-F2) = FC(F)C*; Ac3c = NC1(C(=O)O)CC1; NEtG = CCNCC(=O)O; Sar = CNCC(=O)O

Columns and labels:
[1] = test system: human lung cancer strain NCI-H441; assay type: cell-based
Description: A test compound was dispensed into a U-bottom 384-well plate as 40 nL serially diluted dimethyl sulfoxide solutions using a liquid handler Echo (LABCYTE). […] This cell suspension was dispensed in an amount of 40 µL per well into a plate containing the test compound, and cultured at 37°C in a 5% carbon dioxide gas incubator. Four days later, 20 µL of CellTiter-Glo (registered trademark) (Promega) was added to each well and […] was measured. […]

HRAS wild-type protein = HRAS wild-type protein (Homo sapiens, UniProt P01112); assay: Binding to HRAS by surface plasmon resonance (SPR), KD and KD ratio to KRAS
Description: Surface plasmon resonance was used to analyze the binding affinity of compounds for KRAS, NRAS, and HRAS. The apparatus used was Biacore 8K, 8K+, or T200 (GE Healthcare), and the running buffer used was HBS (10 mM HEPES-NaOH, 150 mM NaCl, pH 7.4) containing 1 mM DTT, 10 mM MgCl2, 0.01% Tween 20, 10 µM GDP, and 4% DMSO.
Biotinylated Avi-tag fusion KRAS, NRAS, and HRAS proteins were expressed in E. coli BL21 (DE3) strains, and after cells were homogenized, they were purified using Streptavidin Mutein Matrix and Superdex 75. After purification, GDP-loaded KRAS, NRAS, and HRAS proteins were immobilized on the surface of Sensor Chip CAP (Cytiva) coated with Biotin CAPture Reagent in an immobilization amount of about 100 to 300 RU. Binding of each compound was evaluated by the Single Cycle Kinetics method, and a running buffer or a compound solution was added to the RAS protein non-immobilized surface and the immobilized surface to obtain a binding response. The flow rate was set to 100 µL/min, and in the compound-adding cycle, compound solutions having different concentrations were intermittently added for 75 seconds each, starting from a low concentration. […] In the blank cycle, a running buffer was intermittently added and not the compound solution. The Biotin CAPture Reagent and RAS proteins were immobilized for each cycle, and at the end of each cycle, the sensor chip was regenerated by the regeneration solution appended to the Biotin CAPture Kit (Cytiva). Measurement was carried out at 30°C.
The resulting sensorgram was subjected to curve fitting based on a 1:1 binding model on Biacore Insight Evaluation Software or T200 Evaluation Software, and thereby the dissociation constant KD of each compound with respect to KRAS, NRAS, and HRAS was determined. […] Blank indicates a compound from which the KD value with respect to NRAS or HRAS was not obtained.

[2] = ratio of KD for HRAS wild-type protein to KD for KRAS

HRAS wild-type protein, sequence (P01112 whole entry): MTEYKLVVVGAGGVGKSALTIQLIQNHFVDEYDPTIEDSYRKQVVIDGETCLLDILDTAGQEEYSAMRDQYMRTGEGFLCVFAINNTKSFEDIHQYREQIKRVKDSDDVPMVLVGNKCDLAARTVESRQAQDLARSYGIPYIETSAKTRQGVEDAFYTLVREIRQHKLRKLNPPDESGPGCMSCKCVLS

| Structure (SMILES) | IC50 [1] [nM] | also measured |
| --- | --- | --- |
| CCC[C@H]1C(=O)N[C@@H]([C@@H](C)CC)C(=O)N(C)CC(=O)N(C)[C@H]2C/C=C\CCN(C2=O)[C@@H](Cc2ccc(C(F)(F)F)cc2)C(=O)N(C)CC(=O)N[C@@H](CCc2ccc(C(F)(F)F)c(OC)c2)C(=O)N2C[C@H](OCC)C[C@H]2C(=O)N(C)C2(CCC2)C(=O)N(C)[C@@H](C2CCCC2)C(=O)N(C)[C@H](C(=O)N2CCCCC2)CC(=O)N1C [PP3103] | 21.5 | HRAS /KRAS (HRAS wild-type protein; [2]): A (a compound having 10 or more and less than 20 is denoted as A) |
| CCO[C@@H]1C[C@H]2C(=O)NC3(CCC3)C(=O)N(C)[C@@H](C(CC)CC)C(=O)N3CCC[C@@H]3CC(=O)N(C)[C@@H](CC)C(=O)N[C@@H]([C@@H](C)CC)C(=O)N(C)CC(=O)N(C)[C@H]3C/C=C\CCN(C3=O)[C@@H](Cc3ccc(C(F)(F)F)cc3)C(=O)N(C)CC(=O)N[C@@H](CCc3cc(F)c(C(F)(F)F)c(F)c3)C(=O)N2C1 [PP1607] | 39.3 | HRAS /KRAS (HRAS wild-type protein; ratio of KD value for HRAS wild-type protein to KD value for KRAS (SPR)): A (a compound having 10 or more and less than 20 is denoted as A) |
| CCCN1C(=O)[C@@H]2CCN2C(=O)[C@@H]2[C@@H](C)CN2C(=O)[C@H]([C@@H](C)CC)NC(=O)[C@H](CC(C)C)N(C)C(=O)C[C@@H](C(=O)N2CCOCC2)N(C)C(=O)[C@H](C2CCCC2)N(C)C(=O)C2(CCCC2)NC(=O)[C@@H]2CCCN2C(=O)[C@H](CCc2ccc(C(F)(F)F)c(Cl)c2)NC(=O)CN(C)C(=O)[C@@H]1Cc1ccc(C(F)(F)F)cc1 [PP0279] ([NMeL]I[Aze(3S-Me)][Aze][NPrPhe(4-CF3)][Sar][hPhe(3-Cl-4-CF3)]P[Ac5c][NMeGly(cPent)][NMeD]-Morpholide; lactam N-11) | 15 | – |
| CCCN1C(=O)[C@@H]2CCN2C(=O)C2(CC2)NC(=O)[C@H]([C@@H](C)CC)NC(=O)[C@H](CC(C)C)N(C)C(=O)C[C@@H](C(=O)N2CCOCC2)N(C)C(=O)[C@H](C2CCCC2)N(C)C(=O)C2(CCCC2)NC(=O)[C@@H]2CCCN2C(=O)[C@H](CCc2ccc(C(F)(F)F)c(Cl)c2)NC(=O)CN(C)C(=O)[C@@H]1Cc1ccc(C(F)(F)F)cc1 [PP0276] ([NMeL]I[Ac3c][Aze][NPrPhe(4-CF3)][Sar][hPhe(3-Cl-4-CF3)]P[Ac5c][NMeGly(cPent)][NMeD]-Morpholide; lactam N-11) | 752 | – |
| CCCN1C(=O)CN(C)C(=O)CN(C)C(=O)[C@H]([C@@H](C)CC)NC(=O)[C@H](CC(C)C)N(C)C(=O)C[C@@H](C(=O)N2CCOCC2)N(C)C(=O)[C@H](C2CCCC2)N(C)C(=O)C2(CCCC2)NC(=O)[C@@H]2C[C@H](OCC(F)F)CN2C(=O)[C@H](CCc2ccc(C(F)(F)F)c(Cl)c2)NC(=O)CN(C)C(=O)[C@@H]1Cc1ccc(C(F)(F)F)cc1 [PP0245] ([NMeL]I[Sar][Sar][NPrPhe(4-CF3)][Sar][hPhe(3-Cl-4-CF3)][cisHyp](Ethyl(2,2-F2))[Ac5c][NMeGly(cPent)][NMeD]-Morpholide; lactam N-11) | 22.9 | – |
| CCC[C@H]1C(=O)N[C@@H]([C@@H](C)CC)C(=O)N(C)CC(=O)N(C)[C@H]2C/C=C\CCN(C2=O)[C@@H](Cc2ccc(C)cc2)C(=O)N(C)CC(=O)N[C@@H](CCc2ccc(C(F)(F)F)c(Cl)c2)C(=O)N2C[C@@H](C)C[C@H]2C(=O)NC2(CCC2)C(=O)N(C)[C@@H](C2CCCC2)C(=O)N(C)[C@H](C(=O)N(C)CC)CC(=O)N1C [PP1848] | 22.5 | – |
| CCCN1C(=O)CN(C)C(=O)CN(CC)C(=O)[C@H]([C@@H](C)CC)NC(=O)[C@H](CC(C)C)N(C)C(=O)C[C@@H](C(=O)N2CCOCC2)N(C)C(=O)[C@H](C2CCCC2)N(C)C(=O)C2(CCCC2)NC(=O)[C@@H]2C[C@H](C)CN2C(=O)[C@H](CCc2ccc(C(F)(F)F)c(Cl)c2)NC(=O)CN(C)C(=O)[C@@H]1Cc1ccc(C(F)(F)F)cc1 [PP0451] ([NMeL]I[NEtG][Sar][NPrPhe(4-CF3)][Sar][hPhe(3-Cl-4-CF3)][Pro(4S-Me)][Ac5c][NMeGly(cPent)][NMeD]-Morpholide; lactam N-11) | 11.2 | – |
| CCCN1C(=O)[C@@H]2CCN2C(=O)[C@H](C)N(C)C(=O)[C@H]([C@@H](C)CC)NC(=O)[C@H](CC(C)C)N(C)C(=O)C[C@@H](C(=O)N2CCOCC2)N(C)C(=O)[C@H](C2CCCC2)N(C)C(=O)C2(CCCC2)NC(=O)[C@@H]2CCCN2C(=O)[C@H](CCc2ccc(C(F)(F)F)c(Cl)c2)NC(=O)CN(C)C(=O)[C@@H]1Cc1ccc(OC(F)(F)F)cc1 [PP0136] ([NMeL]I[NMeA][Aze][X51][Sar][hPhe(3-Cl-4-CF3)]P[Ac5c][NMeGly(cPent)][NMeD]-Morpholide; lactam N-11) | 19.6 | – |

Further compounds by falling IC50 [1], results first:

| IC50 [1] [nM] | Structure (SMILES) | also measured |
| --- | --- | --- |
| 2750 | CC[C@H](C)[C@@H]1NC(=O)[C@H](CC(C)C)N(C)C(=O)C[C@@H](C(=O)N2CCOCC2)N(C)C(=O)[C@H](C2CCCC2)NC(=O)C2(CCCC2)NC(=O)[C@@H]2CCCN2C(=O)[C@H](CCc2cc(F)c(C(F)(F)F)c(F)c2)NC(=O)CN(C)C(=O)[C@H](Cc2ccc(C(F)(F)F)cc2)N2CCCCC[C@@H](C2=O)N(C)C(=O)CN(C)C1=O [PP0478] | – |
| 89.8 | CCC[C@H]1C(=O)N[C@@H]([C@@H](C)CC)C(=O)N(C)CC(=O)N(C)[C@H]2C/C=C\CCN(C2=O)[C@@H](Cc2ccc(C)cc2)C(=O)N(C)CC(=O)N[C@@H](CCc2ccc(Cl)c(OC)c2)C(=O)N2C[C@H](OCC)C[C@H]2C(=O)NC2(CC(C)(C)C2)C(=O)N(C)[C@@H](C(CC)CC)C(=O)N(C)[C@H](C(=O)N(C)C)CC(=O)N1C [PP2791] | HRAS /KRAS (HRAS wild-type protein; [2]): A (a compound having 10 or more and less than 20 is denoted as A) |
| 20.2 | CC[C@H](C)[C@@H]1NC(=O)[C@H](CC)N(C)C(=O)C[C@@H](C(=O)N(C)CC)N(C)C(=O)[C@H](C2CCCC2)N(C)C(=O)C2(CC(C)(C)C2)NC(=O)[C@@H]2C[C@H](C)CN2C(=O)[C@H](CCc2cc(F)c(C(F)(F)F)c(F)c2)NC(=O)CN(C)C(=O)[C@H](Cc2ccc(C)cc2)N2CC/C=C\C[C@@H](C2=O)N(C)C(=O)CN(C)C1=O [PP1882] | – |
| 17.7 | CCO[C@@H]1C[C@H]2C(=O)NC3(CC(C)(C)C3)C(=O)N(C)[C@@H](C3CCCC3)C(=O)N(C)[C@H](C(=O)N(C)CC)CC(=O)N(C)[C@@H](C3CCC3)C(=O)N[C@@H]([C@@H](C)CC)C(=O)N(C)CC(=O)N(C)[C@H]3C/C=C\CCN(C3=O)[C@@H](Cc3ccc(C(F)(F)F)cc3)C(=O)N(C)CC(=O)N[C@@H](CCc3ccc(C(F)(F)F)c(OC)c3)C(=O)N2C1 [PP1985] | HRAS /KRAS (HRAS wild-type protein; ratio of the KD value with respect to HRAS wild-type protein to the KD value with respect to KRAS): B (a compound having 3 or more and less than 10 is denoted as B) |
| 13.4 | CCCN1C(=O)CN(C)C(=O)CN(C)C(=O)[C@H]([C@@H](C)CC)NC(=O)[C@H](CC(C)C)N(C)C(=O)C[C@@H](C(=O)N2CCOCC2)N(C)C(=O)[C@H](C2CCCC2)N(C)C(=O)C2(CCCC2)NC(=O)[C@@H]2CCCN2C(=O)[C@H](CCc2ccc(C(F)(F)F)c(Cl)c2)NC(=O)CN(C)C(=O)[C@@H]1Cc1ccc(OC(F)(F)F)cc1 [PP0137] ([NMeL]I[Sar][Sar][X51][Sar][hPhe(3-Cl-4-CF3)]P[Ac5c][NMeGly(cPent)][NMeD]-Morpholide; lactam N-11) | – |
| 11.8 | CCCN(C)C(=O)[C@@H]1CC(=O)N(C)[C@@H](CCOC)C(=O)N[C@@H]([C@@H](C)CC)C(=O)N(C)CC(=O)N(C)[C@H]2C/C=C\CCN(C2=O)[C@@H](Cc2ccc(C(F)(F)F)cc2)C(=O)N(C)CC(=O)N[C@@H](CCc2cc(F)c(C(F)(F)F)c(F)c2)C(=O)N2C[C@H](OCC)C[C@H]2C(=O)NC2(CC(C)(C)C2)C(=O)N(C)[C@@H](C2CCCC2)C(=O)N1C [PP2033] | – |
| 4.1 | C=CCN1C(=O)[C@@H]2CCN2C(=O)[C@H](C)N(C)C(=O)[C@H]([C@@H](C)CC)NC(=O)[C@H](CC(C)C)N(C)C(=O)C[C@@H](C(=O)N2CCOCC2)N(C)C(=O)[C@H](C2CCCC2)N(C)C(=O)C2(CCCC2)NC(=O)[C@@H]2CCCN2C(=O)[C@H](CCc2ccc(C(F)(F)F)c(Cl)c2)NC(=O)CN(C)C(=O)[C@@H]1Cc1ccc(C)cc1 [PP0088] ([NMeL]I[NMeA][Aze][X50][Sar][hPhe(3-Cl-4-CF3)]P[Ac5c][NMeGly(cPent)][NMeD]-Morpholide; lactam N-11) | – |
| 1.4 | CCO[C@@H]1C[C@H]2C(=O)NC3(CC(C)(C)C3)C(=O)N(C)[C@@H](C3CCCC3)C(=O)N(C)[C@H](C(=O)N(C)C)CC(=O)N(C)[C@H]3CCCCCCc4ccc(cc4)C[C@@H](C(=O)N(C)CC(=O)N[C@@H](CCc4ccc(C(F)(F)F)c(OC)c4)C(=O)N2C1)N1CC/C=C\C[C@@H](C1=O)N(C)C(=O)CN(C1CC1)C(=O)[C@H]([C@@H](C)CC)NC3=O [PP3070] | HRAS /KRAS (HRAS wild-type protein; [2]): B (a compound having 3 or more and less than 10 is denoted as B) |
